From ChEMBL document CHEMBL3621049, “Imidazole derivatives show anticancer potential by inducing apoptosis and cellular senescence” (2014)
Activity calls are given as the source filed them.

Columns and labels:
Format in all cases: functional, cell-based
CCRF-CEM = assay: Growth inhibition of human CCRF-CEM cells at 10 uM by sulforhodamine B assay
HL-60(TB) = assay: Growth inhibition of human HL-60(TB) cells at 10 uM by sulforhodamine B assay
K562 = assay: Growth inhibition of human K562 cells at 10 uM by sulforhodamine B assay
MOLT-4 = assay: Growth inhibition of human MOLT4 cells at 10 uM by sulforhodamine B assay
RPMI-8226 = assay: Growth inhibition of human RPMI8226 cells at 10 uM by sulforhodamine B assay
SR = assay: Growth inhibition of human SR cells at 10 uM by sulforhodamine B assay
A549 = assay: Growth inhibition of human A549/ATCC cells at 10 uM by sulforhodamine B assay
HOP-62 = assay: Growth inhibition of human HOP62 cells at 10 uM by sulforhodamine B assay
NCI-H226 = assay: Growth inhibition of human NCI-H226 cells at 10 uM by sulforhodamine B assay
NCI-H23 = assay: Growth inhibition of human NCI-H23 cells at 10 uM by sulforhodamine B assay
NCI-H322M = assay: Growth inhibition of human NCI-H322M cells at 10 uM by sulforhodamine B assay
NCI-H460 = assay: Growth inhibition of human NCI-H460 cells at 10 uM by sulforhodamine B assay
NCI-H522 = assay: Growth inhibition of human NCI-H522 cells at 10 uM by sulforhodamine B assay
COLO 205 = assay: Growth inhibition of human COLO205 cells at 10 uM by sulforhodamine B assay
HCT-116 = assay: Growth inhibition of human HCT116 cells at 10 uM by sulforhodamine B assay
HCT-15 = assay: Growth inhibition of human HCT15 cells at 10 uM by sulforhodamine B assay
HT-29 = assay: Growth inhibition of human HT-29 cells at 10 uM by sulforhodamine B assay
KM12 = assay: Growth inhibition of human KM12 cells at 10 uM by sulforhodamine B assay
SW-620 = assay: Growth inhibition of human SW620 cells at 10 uM by sulforhodamine B assay
SF-268 = assay: Growth inhibition of human SF268 cells at 10 uM by sulforhodamine B assay
SF-295 = assay: Growth inhibition of human SF295 cells at 10 uM by sulforhodamine B assay
SF-539 = assay: Growth inhibition of human SF539 cells at 10 uM by sulforhodamine B assay
SNB-19 = assay: Growth inhibition of human SNB19 cells at 10 uM by sulforhodamine B assay
SNB-75 = assay: Growth inhibition of human SNB75 cells at 10 uM by sulforhodamine B assay
U-251 = assay: Growth inhibition of human U251 cells at 10 uM by sulforhodamine B assay
LOX IMVI = assay: Growth inhibition of human LOXIMVI cells at 10 uM by sulforhodamine B assay
M14 = assay: Growth inhibition of human M14 cells at 10 uM by sulforhodamine B assay
MDA-MB-435 = assay: Growth inhibition of human MDA-MB-435 cells at 10 uM by sulforhodamine B assay
SK-MEL-2 = assay: Growth inhibition of human SK-MEL-2 cells at 10 uM by sulforhodamine B assay
SK-MEL-28 = assay: Growth inhibition of human SK-MEL-28 cells at 10 uM by sulforhodamine B assay
SK-MEL-5 = assay: Growth inhibition of human SK-MEL-5 cells at 10 uM by sulforhodamine B assay
UACC-257 = assay: Growth inhibition of human UACC257 cells at 10 uM by sulforhodamine B assay
IGROV-1 = assay: Growth inhibition of human IGROV1 cells at 10 uM by sulforhodamine B assay
OVCAR-3 = assay: Growth inhibition of human OVCAR3 cells at 10 uM by sulforhodamine B assay
OVCAR-4 = assay: Growth inhibition of human OVCAR4 cells at 10 uM by sulforhodamine B assay
OVCAR-5 = assay: Growth inhibition of human OVCAR5 cells at 10 uM by sulforhodamine B assay
OVCAR-8 = assay: Growth inhibition of human OVCAR8 cells at 10 uM by sulforhodamine B assay
NCI/ADR-RES = assay: Growth inhibition of human NCI/ADR-RES cells at 10 uM by sulforhodamine B assay
SK-OV-3 = assay: Growth inhibition of human SKOV3 cells at 10 uM by sulforhodamine B assay
786-0 = assay: Growth inhibition of human 786-0 cells at 10 uM by sulforhodamine B assay
A498 = assay: Growth inhibition of human A498 cells at 10 uM by sulforhodamine B assay
ACHN = assay: Growth inhibition of human ACHN cells at 10 uM by sulforhodamine B assay
CAKI-1 = assay: Growth inhibition of human Caki1 cells at 10 uM by sulforhodamine B assay
SN12C = assay: Growth inhibition of human SN12C cells at 10 uM by sulforhodamine B assay
UO-31 = assay: Growth inhibition of human UO31 cells at 10 uM by sulforhodamine B assay
PC-3 = assay: Growth inhibition of human PC3 cells at 10 uM by sulforhodamine B assay
DU-145 = assay: Growth inhibition of human DU145 cells at 10 uM by sulforhodamine B assay
MCF7 = assay: Growth inhibition of human MCF7 cells at 10 uM by sulforhodamine B assay
MDA-MB-231 = assay: Growth inhibition of human MDA-MB-231 cells at 10 uM by sulforhodamine B assay
Hs-578T = assay: Growth inhibition of human Hs 578T cells at 10 uM by sulforhodamine B assay
BT-549 = assay: Growth inhibition of human BT549 cells at 10 uM by sulforhodamine B assay
T47D = assay: Growth inhibition of human T47D cells at 10 uM by sulforhodamine B assay
MDA-MB-468 = assay: Growth inhibition of human MDA-MB-468 cells at 10 uM by sulforhodamine B assay
TK-10 = assay: Growth inhibition of human TK10 cells at 10 uM by sulforhodamine B assay
UACC-62 = assay: Growth inhibition of human UACC62 cells at 10 uM by sulforhodamine B assay
HOP-92 = assay: Growth inhibition of human HOP92 cells at 10 uM by sulforhodamine B assay
Malme-3M = assay: Growth inhibition of human MALME-3M cells at 10 uM by sulforhodamine B assay
HCC 2998 = assay: Growth inhibition of human HCC2998 cells at 10 uM by sulforhodamine B assay
RXF 393 = assay: Growth inhibition of human RXF393 cells at 10 uM by sulforhodamine B assay

Measured: growth inhibition (GI)

COc1ccc(-c2nc(-c3ccccc3)c(-c3ccccc3)n2C2CC2)cc1OC1CCCC1
active: all assays above

COc1cc(-c2nc(-c3ccccc3)c(-c3ccccc3)[nH]2)ccc1OC1CCCC1
active: all assays above
